Experimental data: US9724312B2, “Agent for the prevention, improvement or treatment of retinal disease” (ROHTO PHARMACEUTICAL CO., LTD., priority 2012, dated 2017)

Experiments:
[1] = test system: ARPE-19; experiment: Protective effect for retinal pigment epithelial cells against oxidative stress by hydrogen peroxide; assay type: cell-based, human; details: all-trans form content 280 μM, 14 h, then 750 μM hydrogen peroxide 2 h, FIG. 4, n=3
Excerpt: The involvement of oxidative stress in ophthalmologic diseases has been widely reported. Such involvement has been observed in, in addition to glaucoma and cataract, retinal diseases such as retinal diseases due to diabetes, hypertension, hyperlipemia, etc., age-related macular degeneration, retinopathy of prematurity, retinal vascular occlusion, retinal light damage, etc. (Nippon Ganka Gakkai Zasshi. 112, 22-29 (2008)). In the retina, the retinal pigment epithelium exists in an environment in which reactive oxygen easily generates (Invest Opthalmol V is Sci. 2006 July 47(7): 3164-3177). […]
After 2 hours of incubation, the cell culture supernatant was removed, and 200 μL of PBS was added to each well and promptly removed. Then, 100 μL of an equivalent mixture of a cell viability detection reagent Cell Titer-Glo (Promega) and PBS was added to each well and the luminescence produced by the reaction with ATP in living cells was measured with a luminometer (GloMax; Promega). The cell viability was calculated from the measured luminescence by the following formula and the cytoprotective effect of GGA against oxidative stress by hydrogen peroxide was examined. Cell viability(%)=100×[(luminescence of base- or GGA-treated group)/(luminescence of non-treated group)]

[2] = test system: rat-derived retinal ganglion cells (RGC); experiment: Neurite outgrowth inducing effect in culture system of rat-derived retinal ganglion cells; assay type: cell-based; details: all-trans form content 3 μM, 48 h; FIG. 2 and 3; n=4, Tukey-Kramer
Excerpt: The progress of visual impairment in glaucoma is associated with retinal ganglion cell (RGC) death due to blood flow failure occurring near the optic nerve (Folia Pharmacol. Jpn. 128, 255-258 (2006)). Accordingly, a culture system of rat-derived retinal neurons (Current protocols in Neuroscience 3.22.1-3.22.10, October 2010), which is widely used as one of study tools for optic nerve diseases such as a glaucoma, was used to examine the neurite outgrowth inducing effect of GGA.
Four-day-old Wistar rats (Japan SLC, Inc.) were euthanized by cervical dislocation and the eyeballs were harvested. The harvested eyeballs were immersed in 70% ethanol for 10 seconds and transferred to a Hanks' balanced salt solution containing 100 U/mL penicillin and 100 μg/mL streptomycin. Under a stereoscopic microscope, the corneas, irises, crystalline lenses, and vitreous bodies were removed using scissors for surgery and forceps, and the retinal tissue was harvested. The harvested retinal tissue was transferred to a centrifugation tube containing 5 mL of a basal medium for neuronal cells (Neurobasal, Invitrogen) containing 100 U/mL penicillin, 100 μg/mL streptomycin, a neural cell culture supplement (B27™-Supplement, Invitrogen), 1 μM L-cysteine (Kyowa Hakko Bio) and 15 U/mL papain (Sigma Aldrich) and incubated at 37° C. for 30 minutes. […]

Question: With `CC(=O)CC/C=C(\C)CC/C=C(\C)CC/C=C(\C)CCC=C(C)C` [all-trans form, (5E,9E,13E)-6,10,14,18-tetramethyl-5,9,13,17-nonadecatetrae n-2-one] as the molecule, how does the “cell viability compared with base-treated group” value [1] read?
Answer: significantly higher cell viabilities

Question: What about the “neurite inducing effect (mean length of neurites of RGC) compared with GGA 6:4 and base” value [2] of the same molecule?
Answer: significant neurite inducing effect
